The record followed here is patent publication US20040076590A1, “Antibacterial toothpaste and mouthwash formulations” (priority 2002, published 2004).

As a reminder, the zone of inhibition is the extent of the growth-free halo in a diffusion test.

For test [1], the system named is Stearns strain of B. anthracis. The format is cell-based, Bacillus anthracis.
Test [2] deals with Ames strain of B. anthracis. It is filed as cell-based, Bacillus anthracis.
Test [3] relates to Six strains of Bacillus species. The experiment in a line: Nathans Agar Well Diffusion technique, 3 replicate assays. The format is cell-based. The note with it: for average zone of inhibition: average over Bacillus strains tested.
Another test deals with S. aureus. The experiment in a line: d-limonene inoculation assay (phenol-coefficient), subculture at 24/48/72 hr. The format is cell-based, Staphylococcus aureus. The arrangement: key: NG = no growth. The note with it: >10^5 CFU/ml in 2 ml d-limonene.
The next test deals with S. epidermidis. The test is described as above. The arrangement: key: NG = no growth. The format is cell-based, Staphylococcus epidermidis. The settings on record: >10^5 CFU/ml in 2 ml d-limonene.
In a further test the test system is E. faecalis. The description is as above. Also on record: key: NG = no growth. The settings on record: >10^5 CFU/ml in 2 ml d-limonene. The format is cell-based, Enterococcus faecalis.
The next test relates to E. faecium. Described as above. Also on record: key: NG = no growth. The format is cell-based, Enterococcus faecium. The settings on record: >10^5 CFU/ml in 2 ml d-limonene.
In the next test the test system is E. coli. The test is described as above. It is filed as cell-based, Escherichia coli. Also on record: key: NG = no growth. The settings on record: >10^5 CFU/ml in 2 ml d-limonene.
A further test has as its system Ent. cloacae. The format is cell-based, Enterobacter cloacae. Also on record: key: NG = no growth.
For another test, the system named is K. pneumoniae. Description: d-limonene inoculation assay (phenol-coefficient), subculture at 24/48/72 hr. The note with it: >10^5 CFU/ml in 2 ml d-limonene. The format is cell-based, Klebsiella pneumoniae. Also on record: key: NG = no growth.
In a further test the test system is S. marcescens. It is filed as cell-based, Serratia marcescens. The arrangement: key: NG = no growth.
For another test, the system named is P. aeruginosa. The experiment in a line: d-limonene inoculation assay (phenol-coefficient), subculture at 24/48/72 hr. It is filed as cell-based, Pseudomonas aeruginosa. The arrangement: key: NG = no growth. The settings on record: >10^5 CFU/ml in 2 ml d-limonene.
The subject of the next test is Ac. baum/haemo. The description is as above. It is filed as cell-based, Acinetobacter baummii/haemolyticus. The arrangement: key: NG = no growth. The note with it: >10^5 CFU/ml in 2 ml d-limonene.
The subject of a further test is S. maltophilia. The format is cell-based, Stenotrophomonas maltophila. Also on record: key: NG = no growth.
The test system of a further test is Streptococcus pyogenes. It is filed as cell-based.
The test system of another test is Streptococcus mutans. The format is cell-based.
In test [4] the test system is other beta hemolytic streptococci. The format is cell-based.

For the compound `O=[N+]([O-])[O-].[Ag+]` [AgNO3, silver nitrate], the average inhibition zone in test [1] came out at 18 mm. In [2], the zone of inhibition worked out at 16 mm. The “average zone of inhibition” value in [3] was found to be 16 mm.

For the compound `C/C(=C\C(=O)OCCCCCCCCC(=O)O)C[C@@H]1OC[C@H](C[C@@H]2O[C@H]2[C@@H](C)[C@H](C)O)[C@@H](O)[C@H]1O` [Bactroban], in test [1], the average inhibition zone is on record as 45 mm and the “susceptibility of the strain to the product” value (shortened to “susceptibility of the strain”) is given as “susceptible”. Besides, in [2], the “susceptibility of the strain” value is “susceptible” and the zone of inhibition stood at 35 mm. Moreover, in test [3], the “average zone of inhibition” value is on record as 46 mm.

For `NC(=O)N/N=C/c1ccc([N+](=O)[O-])o1` [Furacin, nitrofurazone], the average inhibition zone in test [1] is listed as 33 mm. Besides, the “average zone of inhibition” value in [3] was found to be 35 mm.

Turning to `OCl` [NaOCl, sodium hypochlorite], the “susceptibility of the strain” value in test [1] is on record as “susceptible to all products tested except”. Also, in test [2], the zone of inhibition entry is recorded as “no zones of inhibition”. This compound also had an average zone size in test [3] (only inhibited P. polymyxa, B. sphaericus and B. cereus) of 16 mm.

For the compound `C=C(C)[C@H]1CC=C(C)CC1` [d-limonene], the “Growth at 24 hr” value with S. aureus (24 hr) was “NG*”; with S. epidermidis (24 hr) it was “NG”; with E. faecalis (24 hr), “NG”; in the test on E. faecium (24 hr), “NG”; in the test on E. coli (24 hr), “NG”; in the test on Ent. cloacae (24 hr) it was “NG”. The “Growth at 24 hr” value is reported as “NG” in the test with K. pneumoniae (24 hr); “NG*” in the test with S. marcescens (24 hr); “NG” in the test on P. aeruginosa (24 hr); “NG” in the test with Ac. baum/haemo (24 hr); “NG” with S. maltophilia (24 hr). In addition, the “Growth at 48 hr” value in the test with S. aureus (48 hr), in the test on S. epidermidis (48 hr), in the test on E. faecalis (48 hr), in the test with E. faecium (48 hr), in the test on E. coli (48 hr) and in the test on Ent. cloacae (48 hr) was “NG” throughout. The “Growth at 48 hr” value in the test with K. pneumoniae (48 hr), in the test on S. marcescens (48 hr), in the test with P. aeruginosa (48 hr), in the test with Ac. baum/haemo (48 hr) and in the test with S. maltophilia (48 hr) was “NG” each time. The “Growth at 72 hr” value in the test with S. aureus (72 hr), in the test with S. epidermidis (72 hr), with E. faecalis (72 hr), in the test with E. faecium (72 hr), with E. coli (72 hr) and in the test with Ent. cloacae (72 hr) was “NG” throughout. The “Growth at 72 hr” value in the test on K. pneumoniae (72 hr), in the test on S. marcescens (72 hr), in the test on P. aeruginosa (72 hr), in the test on Ac. baum/haemo (72 hr) and in the test with S. maltophilia (72 hr) was “NG” each time. Besides, the average inhibition zone in test [1] came to 30 mm. This compound also yielded a zone of inhibition in test [2] of 21 mm. For the same compound, in test [3], the “average zone of inhibition” value worked out at 21 mm. Also, the “eradication of the pathogen” value (in the test with Streptococcus pyogenes; with Streptococcus mutans; in test [4]) was “effective in eradicating” throughout.

Turning to `NCc1ccc(S(N)(=O)=O)cc1` [mafenide acetate], in [1], the average inhibition zone is listed as 38 mm and the “susceptibility of the strain” value is on record as “susceptible”. Further, in test [2], the “susceptibility of the strain” value is reported as “susceptible” and the zone of inhibition is on record as 34 mm. Further, the “average zone of inhibition” value in [3] is listed as 36 mm.
